# Measured values: PMC8185074, “Anchor extension: a structure-guided approach to design cyclic peptides targeting enzyme active sites” (Nature Communications, 2021)
# Peptide text beside a SMILES is read from it.
# Columns and labels:
# Format in all cases: biochemical
# [1] = target: T1, HDAC8 (Homo sapiens, UniProt Q9BY41); assay: HDAC8 inhibition, full IC50 measurement (Reaction Biology; fluorogenic p53 peptide RHKK(Ac)AMC); details: t1/t2 replicates
# T1 construct: purchased Reaction Biology Corporation (assay run by the CRO)
# T1 sequence (Q9BY41 1-377): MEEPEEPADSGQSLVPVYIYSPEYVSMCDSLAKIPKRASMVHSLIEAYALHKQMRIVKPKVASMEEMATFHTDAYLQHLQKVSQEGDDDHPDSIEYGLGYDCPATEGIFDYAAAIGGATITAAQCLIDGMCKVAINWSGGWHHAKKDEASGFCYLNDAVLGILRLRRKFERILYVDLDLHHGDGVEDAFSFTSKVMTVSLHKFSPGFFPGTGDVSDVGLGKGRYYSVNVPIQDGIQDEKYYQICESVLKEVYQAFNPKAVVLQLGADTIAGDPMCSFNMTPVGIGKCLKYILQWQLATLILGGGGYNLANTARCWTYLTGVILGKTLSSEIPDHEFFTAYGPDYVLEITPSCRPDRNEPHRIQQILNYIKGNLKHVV
# Outline: (§1)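 The reaction was a 1 h, 30 °C incubation of enzyme, acoustically added peptide and 50 μM p53-derived AMC substrate in pH 8.0 Tris buffer with NaCl, KCl, MgCl2, 1 mg/ml BSA and 1% DMSO. Duplicate values were averaged.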
# [2] = target: T2, HDAC2 (Homo sapiens, UniProt Q92769); assay: HDAC2 inhibition, full IC50 measurement (Reaction Biology; fluorogenic p53 peptide RHKK(Ac)AMC)
# T2 construct: purchased Reaction Biology Corporation (assay run by the CRO)
# Outline: as §1
# [3] = target: T3, HDAC1 (Homo sapiens, UniProt Q13547); assay: HDAC1 inhibition, full IC50 measurement (Reaction Biology; fluorogenic p53 peptide RHKK(Ac)AMC); details: t1/t2 replicates
# T3 construct: purchased Reaction Biology Corporation (assay run by the CRO)
# Outline: as §1
# [4] = peptide conc. 1.00E-05 M, listed as des2.1.1_t1
# [5] = peptide conc. 1.00E-05 M, listed as des2.1.1_t2
# [6] = peptide conc. 1.11E-06 M, listed as des2.1.1_t1
# [7] = peptide conc. 1.11E-06 M, listed as des2.1.1_t2
# [8] = peptide conc. 1.23E-07 M, listed as des2.1.1_t1
# [9] = peptide conc. 1.23E-07 M, listed as des2.1.1_t2
# [10] = peptide conc. 1.37E-08 M, listed as des2.1.1_t1
# [11] = peptide conc. 1.37E-08 M, listed as des2.1.1_t2
# [12] = peptide conc. 1.52E-09 M, listed as des2.1.1_t1
# [13] = peptide conc. 1.52E-09 M, listed as des2.1.1_t2
# [14] = peptide conc. 3.33E-06 M, listed as des2.1.1_t1
# [15] = peptide conc. 3.33E-06 M, listed as des2.1.1_t2
# [16] = peptide conc. 3.70E-07 M, listed as des2.1.1_t1
# [17] = peptide conc. 3.70E-07 M, listed as des2.1.1_t2
# [18] = peptide conc. 4.12E-08 M, listed as des2.1.1_t1
# [19] = peptide conc. 4.12E-08 M, listed as des2.1.1_t2
# [20] = peptide conc. 4.57E-09 M, listed as des2.1.1_t1
# [21] = peptide conc. 4.57E-09 M, listed as des2.1.1_t2
# [22] = peptide conc. 5.08E-10 M, listed as des2.1.1_t1
# [23] = peptide conc. 5.08E-10 M, listed as des2.1.1_t2
# T3 sequence (Q13547 whole entry): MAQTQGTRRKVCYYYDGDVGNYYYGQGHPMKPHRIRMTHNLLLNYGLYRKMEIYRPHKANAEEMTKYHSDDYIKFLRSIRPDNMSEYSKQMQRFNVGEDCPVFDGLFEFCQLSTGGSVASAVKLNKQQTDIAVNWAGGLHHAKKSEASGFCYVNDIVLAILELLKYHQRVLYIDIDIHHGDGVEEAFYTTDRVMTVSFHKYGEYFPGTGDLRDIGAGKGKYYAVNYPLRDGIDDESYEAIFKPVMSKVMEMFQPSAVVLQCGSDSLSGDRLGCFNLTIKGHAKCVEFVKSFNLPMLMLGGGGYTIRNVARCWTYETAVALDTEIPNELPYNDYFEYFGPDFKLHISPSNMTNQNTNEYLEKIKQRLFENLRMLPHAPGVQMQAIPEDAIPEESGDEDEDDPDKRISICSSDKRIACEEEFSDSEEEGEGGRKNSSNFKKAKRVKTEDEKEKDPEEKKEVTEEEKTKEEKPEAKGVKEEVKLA
# T2 sequence (Q92769 whole entry): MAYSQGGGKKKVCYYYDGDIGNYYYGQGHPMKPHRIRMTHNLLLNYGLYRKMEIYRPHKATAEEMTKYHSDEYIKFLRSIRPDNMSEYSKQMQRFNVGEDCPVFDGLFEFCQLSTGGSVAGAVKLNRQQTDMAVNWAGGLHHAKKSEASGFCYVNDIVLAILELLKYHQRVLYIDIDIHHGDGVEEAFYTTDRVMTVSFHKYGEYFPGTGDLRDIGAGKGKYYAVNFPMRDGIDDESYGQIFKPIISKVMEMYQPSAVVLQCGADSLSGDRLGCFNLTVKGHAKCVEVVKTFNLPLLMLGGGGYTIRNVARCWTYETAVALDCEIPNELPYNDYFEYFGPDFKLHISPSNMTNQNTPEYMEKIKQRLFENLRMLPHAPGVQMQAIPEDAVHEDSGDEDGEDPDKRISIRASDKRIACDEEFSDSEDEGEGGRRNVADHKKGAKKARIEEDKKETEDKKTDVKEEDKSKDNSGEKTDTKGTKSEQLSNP
structure (smiles),measurement,setting,value
"CSCC[C@H]1NC(=O)[C@@H](CO)NC(=O)[C@H](CC(N)=O)NC(=O)[C@H](CC(=O)O)NC(=O)[C@@H]([C@H](C)O)NC(=O)[C@H](Cc2c[nH]c3ccccc23)NC(=O)[C@H](CCCCCS)NC(=O)[C@H](CCCCN)NC(=O)[C@@H](CC(=O)O)NC1=O [des2.1.1, SHA-Trp-dThr-Asp-Asn-dSer-dMet-dAsp-Lys] (HELM PEPTIDE1{D.N.[dS].[dM].[dD].K.[O=C([C@H](CCCCCS)N[*:1])[*:2]].W.[dT]}$PEPTIDE1,PEPTIDE1,1:R1-9:R2$$$V2.0)",HDAC8 activity raw data (signal),[1]; [4],964380
same,HDAC8 activity raw data (signal),[1]; [5],738285
same,HDAC8 activity raw data (signal),[1]; [6],17568030
same,HDAC8 activity raw data (signal),[1]; [7],18194235
same,HDAC8 activity raw data (signal),[1]; [8],56084359
same,HDAC8 activity raw data (signal),[1]; [9],53955732
same,HDAC8 activity raw data (signal),[1]; [10],68600267
same,HDAC8 activity raw data (signal),[1]; [11],68709597
same,HDAC8 activity raw data (signal),[1]; [12],73629892
same,HDAC8 activity raw data (signal),[1]; [13],68940487
same,HDAC8 activity raw data (signal),[1]; [14],6524465
same,HDAC8 activity raw data (signal),[1]; [15],5933628
same,HDAC8 activity raw data (signal),[1]; [16],36548840
same,HDAC8 activity raw data (signal),[1]; [17],38514186
same,HDAC8 activity raw data (signal),[1]; [18],62692187
same,HDAC8 activity raw data (signal),[1]; [19],60959948
same,HDAC8 activity raw data (signal),[1]; [20],71596500
same,HDAC8 activity raw data (signal),[1]; [21],73045422
same,HDAC8 activity raw data (signal),[1]; [22],76849547
same,HDAC8 activity raw data (signal),[1]; [23],76232042
same,HDAC2 activity raw data (signal),"[2]; Conc. 1.00E-05 M, t1",-452
same,HDAC2 activity raw data (signal),"[2]; Conc. 1.00E-05 M, t2",-1036
same,HDAC2 activity raw data (signal),"[2]; Conc. 1.11E-06 M, t1",33890
same,HDAC2 activity raw data (signal),"[2]; Conc. 1.11E-06 M, t2",38279
same,HDAC2 activity raw data (signal),"[2]; Conc. 1.23E-07 M, t1",186095
same,HDAC2 activity raw data (signal),"[2]; Conc. 1.23E-07 M, t2",182790
same,HDAC2 activity raw data (signal),"[2]; Conc. 1.37E-08 M, t1",599694
same,HDAC2 activity raw data (signal),"[2]; Conc. 1.37E-08 M, t2",552663
same,HDAC2 activity raw data (signal),"[2]; Conc. 1.52E-09 M, t1",969892
same,HDAC2 activity raw data (signal),"[2]; Conc. 1.52E-09 M, t2",886346
same,HDAC2 activity raw data (signal),"[2]; Conc. 3.33E-06 M, t1",19780
same,HDAC2 activity raw data (signal),"[2]; Conc. 3.33E-06 M, t2",13124
same,HDAC2 activity raw data (signal),"[2]; Conc. 3.70E-07 M, t1",88233
same,HDAC2 activity raw data (signal),"[2]; Conc. 3.70E-07 M, t2",84596
same,HDAC2 activity raw data (signal),"[2]; Conc. 4.12E-08 M, t1",374430
same,HDAC2 activity raw data (signal),"[2]; Conc. 4.12E-08 M, t2",356371
same,HDAC2 activity raw data (signal),"[2]; Conc. 4.57E-09 M, t1",827090
same,HDAC2 activity raw data (signal),"[2]; Conc. 4.57E-09 M, t2",782443
same,HDAC2 activity raw data (signal),"[2]; Conc. 5.08E-10 M, t1",1119506
same,HDAC2 activity raw data (signal),"[2]; Conc. 5.08E-10 M, t2",1036443
same,IC50,"[2]; figure legends, Supp. Table 1, read-out: HDAC2 IC50",16.3 nM
same,HDAC1 activity raw data (signal),[3]; [4],-3296
same,HDAC1 activity raw data (signal),[3]; [5],-5
same,HDAC1 activity raw data (signal),[3]; [6],15027
same,HDAC1 activity raw data (signal),[3]; [7],19517
same,HDAC1 activity raw data (signal),[3]; [8],121250
same,HDAC1 activity raw data (signal),[3]; [9],94143
same,HDAC1 activity raw data (signal),[3]; [10],426941
same,HDAC1 activity raw data (signal),[3]; [11],417070
same,HDAC1 activity raw data (signal),[3]; [12],888087
same,HDAC1 activity raw data (signal),[3]; [13],854689
same,HDAC1 activity raw data (signal),[3]; [14],5417
same,HDAC1 activity raw data (signal),[3]; [15],8523
same,HDAC1 activity raw data (signal),[3]; [16],47109
same,HDAC1 activity raw data (signal),[3]; [17],41206
same,HDAC1 activity raw data (signal),[3]; [18],257706
same,HDAC1 activity raw data (signal),[3]; [19],221039
same,HDAC1 activity raw data (signal),[3]; [20],716596
same,HDAC1 activity raw data (signal),[3]; [21],664253
same,HDAC1 activity raw data (signal),[3]; [22],1042274
same,HDAC1 activity raw data (signal),[3]; [23],995234
